{
  "source": "patent US20130177609A1",
  "about": "“Compositions and Methods for Increasing Bioavailability of Topical Ophthalmic Drugs” (priority 2008, published 2013)",
  "key": {"[1]": {"assay": "Example 1: ocular tissue pharmacokinetics after topical dose, increasing dose volume at constant drug concentration", "assay_type": "in vivo, pigmented male rabbits (Dutch Belted)", "details": "for AUC(0-t) / DNAUC / Cmax / Tmax: topical ocular; for Cmax / Tmax: male, Dutch Belted, rabbit, topical or ocular", "method": "An aqueous suspension comprising 0.1 mg/mL of the compound having Formula III (BOL-303242-X), 100 mg/mL PEG 3350, and 10 mg/mL Tween® 80 was prepared substantially as disclosed above.\nThis study was carried out using a non-crossover design and a total of 84 naive pigmented male rabbits (Dutch Belted). Each rabbit was arbitrarily assigned to one of three dose groups.\nOn the day of dosing, each animal received a topical ocular dose of the suspension. Animals in Group 1 received a […] instillation, Group 2 received a 30-μL instillation and Group 3 received a 100-μL instillation. The target dose levels for these groups were 1, 3 and 10 μg/eye, respectively. The test composition was shipped to the test site as a ready-to-use suspension.\nAt predetermined time intervals after dosing, rabbits (four per collection time) were euthanized and the eyes enucleated and dissected. Samples of tear, conjunctiva, cornea, aqueous humor and iris/ciliary body were obtained from each animal and frozen until being shipped on dry ice to the analytical laboratory. Samples were collected at 0.0833, 0.25, 0.5, 1, 2, 4 and 6 hour after dosing. Concentrations of BOL-303242-X in ocular tissue samples were determined by LC/MS/MS. One or more samples of each tissue had concentrations that were below the lower limit of quantitation (“LLQ”). These samples were assigned a value of 0.5 times the LLQ for the purpose of calculating a mean concentration for pharmacokinetic (“PK”) analysis. In addition, the BOL-303242-X concentration measured in one tear sample collected at 6 hour was more than 100-fold higher than any other 6-hour sample for the same dose group. This value was considered to be an outlier, and was not included in any calculations.\nNon-compartmental methods were used for pharmacokinetic analysis of concentration versus time data (WinNonlin version 5.2). Due to the destructive sampling regimen employed in this study average composite data were used in the PK analysis."}, "[2]": {"assay": "Solubility in water of compound having Formula III", "assay_type": "physicochemical", "details": "pH 7, water, pH of about 7"}, "[3]": {"details": "Conjunctiva, 10 μL of 0.1 mg/mL suspension (1 μg)"}, "[4]": {"details": "Conjunctiva, 30 μL of 0.1 mg/mL suspension (3 μg)"}, "[5]": {"details": "Conjunctiva, 100 μL of 0.1 mg/mL suspension (10 μg)"}, "[6]": {"details": "Cornea, 10 μL of 0.1 mg/mL suspension (1 μg)"}, "[7]": {"details": "Cornea, 30 μL of 0.1 mg/mL suspension (3 μg)"}, "[8]": {"details": "Cornea, 100 μL of 0.1 mg/mL suspension (10 μg)"}, "[9]": {"details": "Iris/Ciliary Body, 10 μL of 0.1 mg/mL suspension (1 μg)"}, "[10]": {"details": "Iris/Ciliary Body, 30 μL of 0.1 mg/mL suspension (3 μg)"}, "[11]": {"details": "Iris/Ciliary Body, 100 μL of 0.1 mg/mL suspension (10 μg)"}, "[12]": {"details": "Tear, 10 μL of 0.1 mg/mL suspension (1 μg)"}, "[13]": {"details": "Tear, 30 μL of 0.1 mg/mL suspension (3 μg)"}, "[14]": {"details": "Tear, 100 μL of 0.1 mg/mL suspension (10 μg)"}, "[15]": {"details": "1 ug, Conjunctiva, 10 μL of 0.1 mg/mL suspension (1 μg)"}, "[16]": {"details": "1 ug, Cornea, 10 μL of 0.1 mg/mL suspension (1 μg)"}, "[17]": {"details": "1 ug, Iris/Ciliary Body, 10 μL of 0.1 mg/mL suspension (1 μg)"}, "[18]": {"details": "1 ug, Tear, 10 μL of 0.1 mg/mL suspension (1 μg)"}, "[19]": {"details": "3 ug, Conjunctiva, 30 μL of 0.1 mg/mL suspension (3 μg)"}, "[20]": {"details": "3 ug, Cornea, 30 μL of 0.1 mg/mL suspension (3 μg)"}, "[21]": {"details": "3 ug, Iris/Ciliary Body, 30 μL of 0.1 mg/mL suspension (3 μg)"}, "[22]": {"details": "3 ug, Tear, 30 μL of 0.1 mg/mL suspension (3 μg)"}, "[23]": {"details": "10 ug, Conjunctiva, 100 μL of 0.1 mg/mL suspension (10 μg)"}, "[24]": {"details": "10 ug, Cornea, 100 μL of 0.1 mg/mL suspension (10 μg)"}, "[25]": {"details": "10 ug, Iris/Ciliary Body, 100 μL of 0.1 mg/mL suspension (10 μg)"}, "[26]": {"details": "10 ug, Tear, 100 μL of 0.1 mg/mL suspension (10 μg)"}},
  "data": [
    {"smiles": "Cc1ccc2c(NCC(O)(CC(C)(C)c3cc(F)cc4c3OCC4)C(F)(F)F)cccc2n1", "note": "(centres unmarked) [BOL-303242-X]", "values": [
      {"measurement": "AUC(0-t)", "setting": "[1]; [3]", "result": 245, "unit": "ng·h/g"},
      {"measurement": "DNAUC", "setting": "[1]; [3]", "result": 245, "unit": "ng*hr/g ÷ μg dose"},
      {"measurement": "AUC(0-t)", "setting": "[1]; [4]", "result": 487, "unit": "ng·h/g"},
      {"measurement": "DNAUC", "setting": "[1]; [4]", "result": 162, "unit": "ng*hr/g ÷ μg dose"},
      {"measurement": "AUC(0-t)", "setting": "[1]; [5]", "result": 741, "unit": "ng·h/g"},
      {"measurement": "DNAUC", "setting": "[1]; [5]", "result": 74.1, "unit": "ng*hr/g ÷ μg dose"},
      {"measurement": "AUC(0-t)", "setting": "[1]; [6]", "result": 270, "unit": "ng·h/g"},
      {"measurement": "DNAUC", "setting": "[1]; [6]", "result": 270, "unit": "ng*hr/g ÷ μg dose"},
      {"measurement": "AUC(0-t)", "setting": "[1]; [7]", "result": 634, "unit": "ng·h/g"},
      {"measurement": "DNAUC", "setting": "[1]; [7]", "result": 211, "unit": "ng*hr/g ÷ μg dose"},
      {"measurement": "AUC(0-t)", "setting": "[1]; [8]", "result": 955, "unit": "ng·h/g"},
      {"measurement": "DNAUC", "setting": "[1]; [8]", "result": 95.5, "unit": "ng*hr/g ÷ μg dose"},
      {"measurement": "AUC(0-t)", "setting": "[1]; [9]", "result": 32.0, "unit": "ng·h/g"},
      {"measurement": "DNAUC", "setting": "[1]; [9]", "result": 32.0, "unit": "ng*hr/g ÷ μg dose"},
      {"measurement": "AUC(0-t)", "setting": "[1]; [10]", "result": 33.8, "unit": "ng·h/g"},
      {"measurement": "DNAUC", "setting": "[1]; [10]", "result": 11.3, "unit": "ng*hr/g ÷ μg dose"},
      {"measurement": "AUC(0-t)", "setting": "[1]; [11]", "result": 30.5, "unit": "ng·h/g"},
      {"measurement": "DNAUC", "setting": "[1]; [11]", "result": 3.05, "unit": "ng*hr/g ÷ μg dose"},
      {"measurement": "AUC(0-t)", "setting": "[1]; [12]", "result": 8870, "unit": "ng·h/g"},
      {"measurement": "DNAUC", "setting": "[1]; [12]", "result": 8870, "unit": "ng*hr/g ÷ μg dose"},
      {"measurement": "AUC(0-t)", "setting": "[1]; [13]", "result": 12600, "unit": "ng·h/g"},
      {"measurement": "DNAUC", "setting": "[1]; [13]", "result": 4200, "unit": "ng*hr/g ÷ μg dose"},
      {"measurement": "AUC(0-t)", "setting": "[1]; [14]", "result": 25600, "unit": "ng·h/g"},
      {"measurement": "DNAUC", "setting": "[1]; [14]", "result": 2560, "unit": "ng*hr/g ÷ μg dose"},
      {"measurement": "Cmax", "setting": "[1]; 1 ug, Aqueous Humor, 10 μL of 0.1 mg/mL suspension (1 μg)", "result": "< 1", "unit": "ng/mL"},
      {"measurement": "Cmax", "setting": "[1]; [15]", "result": "292 ± 137", "unit": "ng/g"},
      {"measurement": "Tmax", "setting": "[1]; [15]", "result": 4.98, "unit": "min"},
      {"measurement": "Cmax", "setting": "[1]; [16]", "result": "288 ± 116", "unit": "ng/g"},
      {"measurement": "Tmax", "setting": "[1]; [16]", "result": 15, "unit": "min"},
      {"measurement": "Cmax", "setting": "[1]; [17]", "result": "19.6 ± 29.8", "unit": "ng/g"},
      {"measurement": "Tmax", "setting": "[1]; [17]", "result": 60, "unit": "min"},
      {"measurement": "Cmax", "setting": "[1]; [18]", "result": "16300 ± 7000", "unit": "ng/g"},
      {"measurement": "Tmax", "setting": "[1]; [18]", "result": 4.98, "unit": "min"},
      {"measurement": "Cmax", "setting": "[1]; 3 ug, Aqueous Humor, 30 μL of 0.1 mg/mL suspension (3 μg)", "result": "< 1", "unit": "ng/mL"},
      {"measurement": "Cmax", "setting": "[1]; [19]", "result": "684 ± 446", "unit": "ng/g"},
      {"measurement": "Tmax", "setting": "[1]; [19]", "result": 4.98, "unit": "min"},
      {"measurement": "Cmax", "setting": "[1]; [20]", "result": "716 ± 234", "unit": "ng/g"},
      {"measurement": "Tmax", "setting": "[1]; [20]", "result": 4.98, "unit": "min"},
      {"measurement": "Cmax", "setting": "[1]; [21]", "result": "13.1 ± 19", "unit": "ng/g"},
      {"measurement": "Tmax", "setting": "[1]; [21]", "result": 120, "unit": "min"},
      {"measurement": "Cmax", "setting": "[1]; [22]", "result": "28100 ± 11300", "unit": "ng/g"},
      {"measurement": "Tmax", "setting": "[1]; [22]", "result": 15, "unit": "min"},
      {"measurement": "Cmax", "setting": "[1]; 10 ug, Aqueous Humor, 100 μL of 0.1 mg/mL suspension (10 μg)", "result": "< 1", "unit": "ng/mL"},
      {"measurement": "Cmax", "setting": "[1]; [23]", "result": "1050 ± 531", "unit": "ng/g"},
      {"measurement": "Tmax", "setting": "[1]; [23]", "result": 4.98, "unit": "min"},
      {"measurement": "Cmax", "setting": "[1]; [24]", "result": "955 ± 619", "unit": "ng/g"},
      {"measurement": "Tmax", "setting": "[1]; [24]", "result": 4.98, "unit": "min"},
      {"measurement": "Cmax", "setting": "[1]; [25]", "result": "11.3 ± 8.05", "unit": "ng/g"},
      {"measurement": "Tmax", "setting": "[1]; [25]", "result": 60, "unit": "min"},
      {"measurement": "Cmax", "setting": "[1]; [26]", "result": "36700 ± 21400", "unit": "ng/g"},
      {"measurement": "Tmax", "setting": "[1]; [26]", "result": 15, "unit": "min"},
      {"measurement": "increase in exposure with increasing instillation volume", "setting": "[1]; tear, cornea and conjunctiva, 10, 30, 100 μL of 0.1 mg/mL", "result": "less than proportional to the administered dose/volume"},
      {"measurement": "solubility", "setting": "[2]", "result": "~0.2", "unit": "µg/mL"}
    ]}
  ]
}
